Laboratory results from ChEMBL document CHEMBL5634141 (Eur J Med Chem, 2023).
Active and inactive are the calls of the source. The calls are words filed in the database; no cut-off is given here.

Key:
MIA PaCa-2 [1] = assay: Induction of apoptosis in human MIA PaCa-2 cells assessed as early apoptotic cells at 100 nM incubated for 48 hrs by Annexin V-FITC staining based flow cytometry analysis (reference value: 1.55 %); assay type: functional
[2] = Toxicity in BALB/c nude mouse xenografted with human MIA PaCa-2 cells assessed as change in body weight at 10 to 30 mg/kg, ip measured after 16 days; assay type: organism-based; details: in vivo, 384 h, dose 10-30 mg/kg, time 16 day
NCI-H358 [3] = assay: Synergistic antiproliferative activity against human NCI-H358 cells expressing KRAS G12C mutant assessed as combination index at 30 nM incubated for 72 hrs in presence of […] by CCK-8 assay; assay type: functional
NCI-H358 [4] = assay: Inhibition of colony formation in human NCI-H358 cells expressing KRAS G12C mutant assessed as reduction in cell number at 30 nM incubated for 14 days in presence of SHP099 by crystal violet staining based analysis; assay type: functional; details: time 14.0 day
NCI-H23 [5] = assay: Antiproliferative activity against human NCI-H23 cells expressing KRAS G12C mutant assessed as relative cell viability at 30 nM incubated for 72 hrs in presence of crizotinib by CCK-8 assay; assay type: functional; details: read-out: Activity
SW837 = assay: Antiproliferative activity against human SW837 cells expressing KRAS G12C mutant assessed as relative cell viability at 30 nM incubated for 72 hrs in presence of MK-2206 by CCK-8 assay; assay type: functional; details: read-out: Activity
MIA PaCa-2 [6] = assay: Antitumor activity against human MIA PaCa-2 cells xenografted in BALB/c nude mouse assessed as tumor growth inhibition at 10 mg/kg, ip measured after 8 days relative to control; assay type: functional; details: MIA PaCa-2, 192 h, time 8 day, read-out: TGI
[7] = system: von Hippel-Lindau disease tumor suppressor/GTPase KRas (Homo sapiens), P01116+P40337 [G12C]; assay: Protac activity at VHL/KRAS G12C mutant in human MIA PaCa-2 cells assessed as induction of protein degradation in presence of VH032 by Western blot analysis; assay type: cell-based
MIA PaCa-2 [8] = assay: Antiproliferative activity against human MIA PaCa-2 cells expressing KRAS G12C mutant assessed as inhibition of cell growth incubated for 72 hrs by CCK-8 assay; assay type: functional, cell-based; details: MIA PaCa-2, 72 h
MIA PaCa-2 [9] = assay: Antiproliferative activity against human MIA PaCa-2 cells expressing KRAS G12C mutant assessed as reduction of cell growth by measuring fold decrease in IC50 incubated for 72 hrs in presence of Linsitinib by CCK-8 assay; assay type: functional
MIA PaCa-2 [10] = assay: Antitumor activity against human MIA PaCa-2 cells xenografted in BALB/c nude mouse assessed as tumor growth inhibition at 30 mg/kg, ip measured after 16 days relative to control; assay type: functional; details: MIA PaCa-2, 384 h, time 16 day, read-out: TGI
[11] = Toxicity in BALB/c nude mouse xenografted with human MIA PaCa-2 cells at 10 to 30 mg/kg, ip measured after 16 days; assay type: organism-based; details: in vivo, 384 h, dose 10-30 mg/kg, time 16 day
[12] = AUC (0 to infinity) in ICR mouse at 2 mg/kg, iv measured after 24 hrs by LC-MS/MS analysis; assay type: ADME, organism-based; details: in vivo
[13] = system: von Hippel-Lindau disease tumor suppressor/GTPase KRas (Homo sapiens), P01116+P40337 [G12C]; assay: PROTAC activity at VHL/KRAS G12C mutant in human MIA PaCa-2 cells assessed as induction of protein degradation at 300 nM incubated for 6 hrs by Western blotting analysis relative to control; assay type: cell-based
MIA PaCa-2 [14] = assay: Induction of cell cycle arrest in human MIA PaCa-2 cells assessed as accumulation of cells at G2/M phase incubated for 48 hrs by propidium iodide staining based flow cytometry analysis; assay type: functional; details: dose 30-300 nM
[15] = AUC (0 to t) in ICR mouse at 30 mg/kg, ip measured after 24 hrs by LC-MS/MS analysis; assay type: ADME, organism-based; details: in vivo
NCI-H358 [16] = assay: Antiproliferative activity against human NCI-H358 cells expressing KRAS G12C mutant assessed as reduction of cell growth by measuring fold decrease in IC50 incubated for 72 hrs in presence of SHP099 by CCK-8 assay; assay type: functional
NCI-H358 [17] = assay: Induction of apoptosis in human NCI-H358 cells assessed as late apoptotic cells at 30 nM incubated for 48 hrs by Annexin V-FITC staining based flow cytometry analysis (reference value: 5.20 %); assay type: functional
Calu-1 [18] = assay: Antiproliferative activity against human Calu-1 cells expressing KRAS G12C mutant assessed as relative cell viability at 30 nM incubated for 72 hrs in presence of MK-2206 by CCK-8 assay; assay type: functional; details: read-out: Activity
[19] = AUC (0 to infinity) in ICR mouse at 30 mg/kg, ip measured after 24 hrs by LC-MS/MS analysis; assay type: ADME, organism-based; details: in vivo
Mus musculus = assay: In vivo PROTAC activity at VHL/KRAS G12C mutant in BALB/c nude mouse xenografted with human MIA PaCa-2 cells assessed as decrease in KRAS level at 10 to 30 mg/kg, ip administered for 16 days by Western blot analysis; assay type: functional, organism-based; details: dose 10-30 mg/kg, time 16.0 day
NCI-H358 [20] = assay: Induction of apoptosis in human NCI-H358 cells assessed as viable cells at 30 nM incubated for 48 hrs by Annexin V-FITC staining based flow cytometry analysis (reference value: 91.6 %); assay type: functional; details: read-out: Activity
NCI-H358 [21] = assay: Induction of apoptosis in human NCI-H358 cells assessed as viable cells at 100 nM incubated for 48 hrs by Annexin V-FITC staining based flow cytometry analysis (reference value: 91.6 %); assay type: functional; details: read-out: Activity
[22] = Cytotoxicity against HEK293T cells assessed as inhibition of cell growth incubated for 72 hrs by CCK-8 assay; assay type: toxicity, cell-based, HEK-293T; details: human
[23] = system: von Hippel-Lindau disease tumor suppressor/GTPase KRas (Homo sapiens), P01116+P40337 [G12C]; assay: PROTAC activity at VHL/KRAS G12C mutant in human MIA PaCa-2 cells assessed as induction of protein degradation in presence of MLN4924 by Western blot analysis; assay type: cell-based
Calu-1 [24] = assay: Antiproliferative activity against human Calu-1 cells expressing KRAS G12C mutant assessed as relative cell viability at 30 nM incubated for 72 hrs in presence of daclolisib by CCK-8 assay; assay type: functional; details: read-out: Activity
NCI-H358 [25] = assay: Synergistic antiproliferative activity against human NCI-H358 cells expressing KRAS G12C mutant assessed as combination index at 30 nM incubated for 72 hrs in presence of crizotinib by CCK-8 assay; assay type: functional
[26] = system: von Hippel-Lindau disease tumor suppressor/GTPase KRas (Homo sapiens), P01116+P40337 [G12C]; assay: PROTAC activity at VHL/KRAS G12C mutant in human NCI-H358 cells assessed as induction of protein degradation at 100 nM incubated for 48 hrs by Western blotting analysis relative to control; assay type: cell-based
[27] = system: von Hippel-Lindau disease tumor suppressor/GTPase KRas (Homo sapiens), P01116+P40337 [G12C]; assay: PROTAC activity at VHL/KRAS G12C mutant in human MIA PaCa-2 cells assessed as induction of protein degradation in presence of AMG510 by Western blotting analysis; assay type: cell-based
[28] = system: von Hippel-Lindau disease tumor suppressor/GTPase KRas (Homo sapiens), P01116+P40337 [G12C]; assay: PROTAC activity at VHL/KRAS G12C mutant in human NCI-H358 cells assessed as induction of protein degradation at 100 nM incubated for 1 to 8 days by Western blotting analysis; assay type: cell-based; details: time 1-8 day
NCI-H23 [29] = assay: Antiproliferative activity against human NCI-H23 cells expressing KRAS G12C mutant assessed as relative cell viability at 30 nM incubated for 72 hrs in presence of naporafenib by CCK-8 assay; assay type: functional; details: read-out: Activity
MIA PaCa-2 [30] = assay: Inhibition of cell migration in human MIA PaCa-2 cells incubated for 12 hrs by wound healing assay; assay type: functional, cell-based; details: dose 30-300 nM

C=CC(=O)N1CCN(c2nc(=O)n(-c3c(C)ccnc3C(C)C)c3nc(-c4c(F)cccc4OCC4CCN(CCCC(=O)N[C@H](C(=O)N5C[C@H](O)C[C@H]5C(=O)NCc5ccc(-c6scnc6C)cc5)C(C)(C)C)CC4)c(F)cc23)[C@@H](C)C1
Activity (MIA PaCa-2 [1]): 6.73% | Activity [2]: Non-Toxic | CI (NCI-H358 [3]): <1 | inhibition (NCI-H358 [4]): Active | viability at 0.03 µM (NCI-H23 [5]): 0.33% | viability at 0.03 µM (SW837): 0.34% | inhibition in vivo at 10 mg/kg (MIA PaCa-2 [6]): 93.4% | Activity [7]: inactive | IC50 (MIA PaCa-2 [8]): 45 nM | fold change (FC) (MIA PaCa-2 [9]): ~3 | inhibition in vivo at 30 mg/kg (MIA PaCa-2 [10]): 100% | Activity [11]: Non-Toxic | AUC [12]: 404 ng·h/mL | Activity [13]: 50% | Activity (MIA PaCa-2 [14]): Dose-Dependent Effect | AUC(0-t) at 24 h [15]: 21000 ng·h/mL | fold change (FC) (NCI-H358 [16]): ~4 | Activity (NCI-H358 [17]): 6.13% | viability at 0.03 µM (Calu-1 [18]): 0.32% | AUC(0-inf) [19]: 21100 ng·h/mL | Activity (Mus musculus): Active | viability at 0.03 µM (NCI-H358 [20]): 89.4% | viability at 0.1 µM (NCI-H358 [21]): 85.9% | IC50 at 72 h [22]: > 10000 nM | Activity [23]: inactive | viability at 0.03 µM (Calu-1 [24]): 0.12% | CI (NCI-H358 [25]): <1 | Activity [26]: 100% | Activity [27]: inactive | Activity [28]: Active | viability at 0.03 µM (NCI-H23 [29]): 0.34% | inhibition (MIA PaCa-2 [30]): Dose-Dependent Effect
